Data published in patent US20090093460A1, “Compositions” (AstraZeneca AB, priority 2003, published 2009).

System: mice
Assay: Tail suspension test
Format: in vivo, mouse
Procedure: Antidepressant activity of 11-piperazin-1-yldibenzo[b,f][1,4]thiazepine was assessed in mice according to the tail suspension test. As shown in the results below, 11-piperazin-1-yldibenzo[b,f][1,4]thiazepine has antidepressant activity in mice.
In a first experiment, mice (n=10/group) were treated with vehicle, 2.0, 5.0, or 10.0 mg/kg of 11-piperazin-1-yldibenzo[b,f][1,4]thiazepine s.c. 15 minutes prior to the test session. Mice were suspended from their tails for 7 minutes. During the last 5 minutes of the test, the duration of immobility was recorded. In a second experiment, mice (n=10/group) were treated with vehicle, 30 mg/kg 11-piperazin-1-yldibenzo[b,f][1,4]thiazepine, or 30 mg/kg fluoxetine p.o. 60 minutes prior to the test session. Mice were suspended from their tails for 7 minutes. During the last 5 minutes of the test, the duration of immobility was recorded.

## c1ccc2c(c1)N=C(N1CCNCC1)c1ccccc1S2 [11-piperazin-1-yldibenzo[b,f][1,4]thiazepine]
10.0 mg/kg s.c.
  reduction of immobility, fraction of that of the vehicle control group: more than ½
10.0 mg/kg s.c., p<0.01
  duration of immobility compared with controls: significantly reduced immobility
30 mg/kg p.o., 60 minutes prior
  reduction of immobility, fraction of that of the vehicle control group: more than ½
30 mg/kg p.o., 60 minutes prior, p<0.01
  duration of immobility compared to the vehicle control group: significantly reduced immobility
All doses tested: 2.0, 5.0, 10.0 mg/kg s.c., 15 minutes prior
  duration of immobility: reduced immobility
